Like-named read-outs stand apart in the source and are kept apart here. Where a SMILES comes first, the peptide text is derived from it. Bridges are numbered along the chain shown (N, C = ends).
Target: T1, Kv4.2 (Rattus norvegicus, UniProt Q63881)
T1 construct: expressed in transfected cells; host or cells: HEK293t
T1 sequence (Q63881 1-630): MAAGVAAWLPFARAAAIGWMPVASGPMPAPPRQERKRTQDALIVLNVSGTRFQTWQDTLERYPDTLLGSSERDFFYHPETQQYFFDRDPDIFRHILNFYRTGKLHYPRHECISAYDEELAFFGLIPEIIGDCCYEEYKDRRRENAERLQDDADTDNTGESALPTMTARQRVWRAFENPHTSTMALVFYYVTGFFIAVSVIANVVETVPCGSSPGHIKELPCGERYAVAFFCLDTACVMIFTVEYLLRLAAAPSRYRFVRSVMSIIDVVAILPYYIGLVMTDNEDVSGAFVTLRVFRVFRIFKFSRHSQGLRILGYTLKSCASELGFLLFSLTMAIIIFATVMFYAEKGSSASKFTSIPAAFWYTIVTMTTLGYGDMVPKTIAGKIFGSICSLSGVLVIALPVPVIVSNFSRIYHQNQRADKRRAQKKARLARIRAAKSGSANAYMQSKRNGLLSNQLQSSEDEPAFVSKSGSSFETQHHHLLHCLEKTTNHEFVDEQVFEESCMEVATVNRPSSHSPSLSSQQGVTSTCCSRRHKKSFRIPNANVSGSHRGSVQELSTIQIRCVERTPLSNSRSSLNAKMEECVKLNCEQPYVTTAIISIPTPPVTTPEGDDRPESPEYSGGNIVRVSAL
Assay: triple-pulse protocol, toxin dissociation by strong depolarization, Kv4.2 in HEK 293T cells
Assay type: cell-based
Details: 500 nM; for inhibition at 0.5 µM: HEK-293T
From the text: Rat cDNA genes encoding Kv4.2 (Accession: NM_031730.2) and Kv4.3 (Accession: AB003587.1) were subcloned to vector pcDNA3.1. In addition, human cDNA genes encoding Nav1.7 (Accession: DQ857292.1) and Nav1.5 (Accession: AB158469.2) were subcloned to vectors pcDNA3.1-mod and pcDNA3.1, separately. Then, Kv4.2, Kv4.3, Nav1.5 and Nav1.7 constructs were transiently transfected into the human embryonic kidney 293t (HEK293t) cells using lipofectamine 2000 (Invitrogen, USA) in accordance with manufacturer protocols. Thereafter, HEK293 cells were inoculated within Dulbecco’s modified Eagle’s medium (DMEM) containing 10% fetal bovine serum (FBS) at 5% CO2 and 37°C. The Kv4.3 channel and the Kv4.2 counterpart were then transfected in the absence of β subunit. Subsequently, cells were incubated with a DNA-lipofectamine mixture (one reporter plasmid for green fluorescence protein and channel constructs) for 4-6 h, and were washed with the fresh medium.
An EPC-10 patch-clamp amplifier (HEKA, Germany) was employed to record the potassium currents at the configuration of whole-cell patch-clamp under an ambient temperature of 22-25°C. The resistance was 2.0-3.0 MΩ when the recording pipette contained a full volume of internal solution (supplemented with 140 mM KCl, 10 mM HEPES, 2.5 mM MgCl2, 5 mM ATP and 11 mM EGTA). KOH was utilized to adjust the pH to 7.2, while sucrose was employed to adjust the osmolarity to 310 mOsm/L. The culture medium was replaced with an external solution containing 150 mM NaCl, 2.5 mM CaCl2, 10 mM HEPES, 2 mM MgCl2, 5 mM KCl, and 10 mM D-glucose. Similarly, sucrose and NaOH were applied to adjust the osmolarity to 330 mOsm/L and pH to 7.4. […] The series resistance was maintained at about 5 MΩ, with 65-70% compensation. Finally, the leakage currents and linear capacitance were subtracted digitally according to the P/4 protocol.
Subsequently, we examined whether strong depolarization induced toxin dissociation from potassium channels. To address this question, the triple-pulse protocol was utilized, which used the test pulse of +20 mV after potent depolarization (+130 mV) to measure the available Kv4.2 currents (Fig. 6, inset). […] Furthermore, this toxin also affected the amplitude of outward Kv4.2 currents (46.3 ± 5.6%) by the second pulse (+130 mV). Typically, the amplitude of current acquired was nearly the same as that in controls induced by a third pulse (+20 mV), since the inhibition was only 17.5 ± 3.9% (Fig. 6, n = 7).
Figure 6. Potent depolarization dissociated the toxin-channel complex. The 300 ms test pulse at the voltage of +20 mV was utilized to induce the current traces. Prior to the application of test pulse, cells held at the voltage of -80 mV depolarized for 500 ms at the conditioning pulse of +130 mV and the holding potential of 50 ms (see inset). Following 500 nM JZTX-X perfusion, the test pulse-elicited current amplitude was nearly identical to the control after the 500 ms conditioning pulse.

## CC(C)C[C@@H]1NC(=O)[C@H](CCCCN)NC(=O)[C@H](Cc2ccc(O)cc2)NC(=O)[C@@H]2CSSC[C@@H]3NC(=O)[C@H](Cc4ccc(O)cc4)NC(=O)[C@H](Cc4ccccc4)NC(=O)CNC(=O)[C@H](C)NC(=O)[C@H](CSSC[C@H](NC(=O)[C@@H](N)CC(C)C)C(=O)N[C@@H](CO)C(=O)N[C@@H](CCCNC(=N)N)C(=O)N[C@@H](CCC(=O)O)C(=O)NCC(=O)N[C@@H](CCC(=O)O)C(=O)N[C@@H](Cc4ccccc4)C(=O)N2)NC(=O)[C@H](CSSC[C@@H](C(=O)N[C@@H](Cc2ccc(O)cc2)C(=O)N[C@@H](CCCNC(=N)N)C(=O)N[C@@H](CC(N)=O)C(=O)O)NC(=O)[C@H](Cc2c[nH]cn2)NC(=O)[C@H](CC(C)C)NC(=O)[C@H](C(C)C)NC(=O)[C@H](Cc2ccccc2)NC(=O)[C@H](C)NC(=O)[C@H](CCCCN)NC3=O)NC(=O)[C@H](CCCCN)NC(=O)[C@H](CCCNC(=N)N)NC1=O [JZTX-X, Jingzhaotoxin-X] (H-LCSREGEFCYKLRKCCAGFYCKAFVLHCYRN-OH; disulfide 2-16, 9-21, 15-28; N-terminus assumed)
500 ms conditioning pulse, n = 7, 0.5 µM
  inhibition of Kv4.2 outward current, second pulse (+130 mV): ~ 46%
Holding -80 mV, n = 7, 0.5 µM
  inhibition of Kv4.2 current, first pulse (+20 mV): ~ 93%
500 ms conditioning pulse, n = 7, read-out: inhibition of Kv4.2 outward current, second pulse (+130 mV)
  inhibition at 0.5 µM: 46.3 ± 5.6%
After +130 mV conditioning pulse, n = 7, read-out: inhibition of Kv4.2 current, third pulse (+20 mV)
  inhibition at 0.5 µM: 17.5 ± 3.9%
Holding -80 mV, n = 7, read-out: inhibition of Kv4.2 current, first pulse (+20 mV)
  inhibition at 0.5 µM: 92.6 ± 3.2%

Source: publication PMC7269146, “Jingzhaotoxin-X, a gating modifier of Kv4.2 and Kv4.3 potassium channels purified from the venom of the Chinese tarantula Chilobrachys jingzhao” (The Journal of Venomous Animals and Toxins Including …, 2020)
